Among the data in PubChem BioAssay AID1918952 (Molecular Pharmacology Branch, DTP, NCI, 2023) are viability, T/C and IC50 values, retold here.

The structures appear in SMILES notation. Values joined by “and” are separate entries in the source; they are usually repeats but may differ in a detail not shown here. Equal entries are not always repeated.

The test system of this test is LG0703-F948-PDC complex spheroid viability. Briefly: Anticancer human tumor LG0703-F948-PDC patient-derived lung adenocarcinoma cell line growth inhibition. As to conditions: for viability, T/C: stronger effect = lower value. The text has this: Multicellular complex tumor spheroid response to LSD1 Inhibitor Iadademstat in combination with a variety of drugs and investigational agents in selected tumor cell lines
The current study was undertaken to assess response to LSD1 inhibitors in combination with standard-of-care drugs and investigational agents in solid tumor complex spheroid models as well as in the K-562 leukemia. Complex spheroids include a stromal component modeled by human endothelial cells (HUVEC) and fibroblasts modeled by human mesenchymal stem cells (MSCs). The concentration ranges selected for each drug and investigational agent were based upon clinically achievable concentrations if the clinical Cmax of the agent was known.
Compounds. The drugs and investigational agents used in this study are listed on Table 1. All of the agents used, including staurosporine (NSC755774) and gemcitabine (NSC613327), were obtained from the Developmental Therapeutics Program, NCI. FDA-approved anticancer drugs are available from the NCI at http://dtp.nci.nih.gov/branches/dscb/oncology_drugset_explanation.html. Drugs and investigational agents were >95% pure by proton nuclear magnetic resonance (NMR) and liquid chromatography/mass spectrometry (LC/MS). Stock solutions were prepared at 400x in DMSO, stored at -70 degrees C, and diluted in fresh medium prior to their use. The final concentration of DMSO in cell culture wells never exceeded 0.25% (v/v). The FDA-approved anticancer drug set is available from the Developmental Therapeutics Program at https://dtp.cancer.gov/organization/dscb/obtaining/available_plates.htm. All drugs and investigational agents were tested over a range starting from a high concentration at or near the clinical Cmax and decreasing in half-log increments. If the clinical Cmax for an agent had not been determined, the highest concentration tested was 10 microM.
Cell Lines. The patient-derived cancer cell (PDC) lines: 292921-168-R-J2-PDC, K24384-001-R-PDC, and 521955-158-R2-J5-PDC pancreatic carcinomas, 556581-035-R-J1 ovarian carcinoma, 324938-238-R-J1-PDC, 855422-203-R-J1-PDC and 883617-216-R-J1-PDC urothelial bladder carcinomas, 743489-274-T-PDC renal cell carcinoma, 138582-R-J1 Merkel cell tumor, K60290-347-R-J1 and K57222-313-R-J1-PDC glioblastomas, 653999-131-R-J2-PDC, LG0703-F948-PDC, and 349418-098-R-PDC non-small cell lung carcinomas, 885512-296-R-J2-PDC, 171881-019-R-J1-PDC breast carcinomas and 186277-243-T-J2-PDC and 233499-124-R-J2-PDC colon carcinomas were obtained from the NCI Patient-Derived Models Repository (PDMR, https://pdmr.cancer.gov). The established cell lines NCI/ADR-RES (RRID:CVCL_14520 and OVCAR-5 (RRID:CVCL_1628) ovarian carcinomas, 786-O (RRID:CVCL_1051) and A498 (RRID:CVCL_A498) renal cell carcinoma, NCI-H211 (ATCC, cat. CRL-5824; RRID:CVCL_1529), NCI-H196 (ATCC, cat. CRL-5823, RRID:CVCL_1509), SW 1271 (ATCC, cat. CRL-2177, RRID:CVCL_1716) and NCI-H1876 (ATCC, cat. CRL-5902, RRID:CVCL_1503) small cell lung carcinomas, MDA-MB-231 (RRID:CVCL_0062) and MDA-MB-468 (RRID:CVCL_0419)breast carcinomas (10-12). Pooled donor human umbilical vein endothelial cells (HUVEC, Lonza, cat. CC-2519) and human mesenchymal stem cells (hMSC, Lonza, cat. PT-2501) were purchased from Lonza (Walkersville, MD).
Cell Culture. All cells were maintained in an incubator at 37 degrees C and 5% CO2 with 95% humidity. The PDC lines were cultured according to standard operating procedures established by the NCI PDMR (https://pdmr.cancer.gov). Briefly all PDCs were thawed and cultured in Matrigel-coated flasks prepared with a working solution of 1X Ham's F-12 nutrient mix, without supplementation (Invitrogen, Waltham, MA, cat. 11765054), 100 U/mL penicillin-streptomycin (Invitrogen, cat. 15140122), and 2.5% Matrigel (Corning Inc., Corning, NY, cat. 354248) for the first three passages. […]
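Also: spheroids exposed to agents for seven days before readout.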
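For viability, T/C in this document: 100% = DMSO vehicle control wells as normalization base.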

Broadly, the viability, T/C is the result in the treated group divided by that in the control group, in per cent. The term IC50 denotes the concentration that gives 50% inhibition. As to `CC(C)c1c(-c2ccccc2)nc2c(C#N)c[nH]n2c1=O`, the viability, T/C reads like this: (compound 0.0316 µM) 106% and 93%; (compound 0.1 µM) 91.8% and 84.6%; (compound 0.316 µM) 84.1% and 102%; (compound 1 µM) 100% and 86.9%; (compound 3.16 µM) 89.7% and 91%; (compound 10 µM) 75.7% and 79.8%. In addition, the IC50 (curve of compound) was over 10 µM.

Consider `CC1(C)CCC(CN2CCN(c3ccc(C(=O)NS(=O)(=O)c4ccc(NCC5CCOCC5)c([N+](=O)[O-])c4)c(Oc4cnc5[nH]ccc5c4)c3)CC2)=C(c2ccc(Cl)cc2)C1`, for which the viability, T/C reads like this: (compound 0.0316 µM) 87% and 94.2%; (compound 0.1 µM) 98.5% and 93.8%; (compound 0.316 µM) 91.7% and 89.7%; (compound 1 µM) 96.8% and 84.2%; (compound 3.16 µM) 36.5% and 50.3%; (compound 10 µM) 3.78% and 4.3%. For the setting “curve of compound”, the IC50 is 2.41 µM and 3.2 µM.

Consider `CC1COCCN1c1cc(C2(S(C)(=N)=O)CC2)nc(-c2ccnc3[nH]ccc23)n1` (stereo not given), for which the viability, T/C was 105% and 90.8% (compound 0.0316 µM); 101% and 105% (compound 0.1 µM); 104% and 100% (compound 0.316 µM); 87.4% and 81.6% (compound 1 µM); 63% and 65.7% (compound 3.16 µM); 24.9% and 20.9% (compound 10 µM). Also, under “curve of compound”, the IC50 is 4.64 µM and 4.62 µM.

Take `CCN(c1cc(-c2ccc(CN3CCOCC3)cc2)cc(C(=O)NCc2c(C)cc(C)[nH]c2=O)c1C)C1CCOCC1`: the viability, T/C is, setting by setting: (compound 0.00949 µM) 119% and 92.8%; (compound 0.03 µM) 97.8% and 90.4%; (compound 0.0949 µM) 101% and 97.6%; (compound 0.3 µM) 101% and 90.8%; (compound 0.949 µM) 105% and 96%; (compound 3 µM) 102% and 96.7%. The IC50 (curve of compound) is over 3 µM.

For `COc1cc(C2c3cc4c(cc3C(OC3OC5COC(C)OC5C(O)C3O)C3COC(=O)C23)OCO4)cc(OC)c1O` (stereo not given), the viability, T/C is 91.2% and 110% (compound 0.00949 µM); 86.7% and 112% (compound 0.03 µM); 83% and 88.5% (compound 0.0949 µM); 77% and 84.2% (compound 0.3 µM); 75% and 81.7% (compound 0.949 µM); 49.3% and 59.2% (compound 3 µM). Further, where the note is “curve of compound”, the IC50 was over 3 µM.

Consider `COc1ccc([C@@H](O)c2cc(-c3ncnc4cc(N5CCOCC5)ccc34)c(F)cc2Cl)nn1`, for which the viability, T/C by setting is: (compound 0.0316 µM) 96.8% and 94.9%; (compound 0.1 µM) 95.5% and 89%; (compound 0.316 µM) 83.9% and 78.1%; (compound 1 µM) 64.1% and 62.8%; (compound 3.16 µM) 20.1% and 24%; (compound 10 µM) 3.89% and 4.14%. The IC50 (curve of compound) is 1.4 µM and 1.38 µM.

In the case of `NC1CC1c1ccc(-c2cccc(O)c2)cc1` (stereo not given), the viability, T/C by setting is: (compound 0.1 µM) 94.9% and 98.4%; (compound 3.16 µM) 99.9% [middle of 24 runs]. Moreover, the IC50 (compound alone, run of 02/21/2022) is over 10 µM.

In the case of `NC1CCC(NC2CC2c2ccccc2)CC1` (stereo not given), the viability, T/C (compound 0.316 µM) is 99.4% and 101% and 110%. The IC50 (compound alone, run of 02/15/2022) was over 10 µM.

`NS(=O)(=O)OCC1CC(n2ccc3c(NC4CCc5ccccc54)ncnc32)CC1O` (stereo not given): the viability, T/C reads like this: (compound 0.00949 µM) 103% and 93.6%; (compound 0.03 µM) 110% and 98.5%; (compound 0.0949 µM) 102% and 92.3%; (compound 0.3 µM) 74% and 62.3%; (compound 0.949 µM) 33.3% and 38.5%; (compound 3 µM) 15.6% and 20.2%. Further, the IC50 (curve of compound) was 0.59 µM and 0.545 µM.

For the molecule `Nc1ccccc1NC(=O)c1ccc(CNC(=O)OCc2cccnc2)cc1`, the viability, T/C (compound 0.00949 µM) was 100% and 75.3%; the viability, T/C (compound 0.03 µM) was 101% and 76.5%; the viability, T/C (compound 0.0949 µM) was 68.7% and 63.2%; the viability, T/C (compound 0.3 µM) is 21.4% and 17.3%; the viability, T/C (compound 0.949 µM) is 1.46% and 1.45%; the viability, T/C (compound 3 µM) is 0.48% and 0.84%. For the same molecule, the IC50 (curve of compound) was 0.151 µM and 0.132 µM.

In the case of `O=C(C=Cc1cccc(S(=O)(=O)Nc2ccccc2)c1)NO`, the viability, T/C is, setting by setting: (compound 0.00949 µM) 94.2% and 95.1%; (compound 0.03 µM) 90.9% and 90.4%; (compound 0.0949 µM) 43.7% and 43.1%; (compound 0.3 µM) 11.7% and 12.1%; (compound 0.949 µM) 1.64% and 1.58%; (compound 3 µM) 0.25% and 0.32%. Besides, where the note is “curve of compound”, the IC50 is 0.0838 µM and 0.0828 µM.

Take `O=C(c1cc(Cc2n[nH]c(=O)c3ccccc23)ccc1F)N1CCN(C(=O)C2CC2)CC1`: the viability, T/C reads like this: (compound 0.0316 µM) 84.5% and 107%; (compound 0.1 µM) 97.1% and 103%; (compound 0.316 µM) 86.5% and 98.2%; (compound 1 µM) 93.8% and 106%; (compound 3.16 µM) 85.7% and 85.5%; (compound 10 µM) 65.5% and 74.2%. In addition, the IC50 (curve of compound) is over 10 µM.
